This is an account of results in PubChem BioAssay AID190 (DTP/NCI, 2004).

The test system of this test is AKR/Lw mice, AKR lymphoma ip, median survival T/C. The test is described as follows: NCI In Vivo Anticancer Drug Screen. Data for tumor model Lymphoma AKR (Transplanted) (intraperitoneal) in AKR/Lw mice. The note with it: endpoint: median survival time, higher = longer survival. As to the method:
The antitumor activity of compounds was measured in mice bearing transplantable tumors. Survival or tumor size were measured and the results are expressed as the measurement made in the treated group (T) divided by the measurement made in the vehicle treated control group (C). The tumor model used in this assay is Lymphoma AKR (Transplanted) (intraperitoneal) in AKR/Lw mice

Where “and” joins values, the source holds several entries; their conditions need not be identical. Equal values may be shown once. Toxic doses and inconclusive results are not listed.

For `CC1CCC(NC(=O)N(CCCl)N=O)CC1` (centres undefined), the T/C (dose: 1.25 mg/kg/injection, schedule: Q14DX003 (ip), vehicle: saline with Tween-80) was 112 % of control; the T/C (dose: 2.0 mg/kg/injection, schedule: Q04DX003 (ip), vehicle: saline with Tween-80) was 106 % of control; the T/C (dose: 2.0 mg/kg/injection, schedule: Q07DX004 (ip), vehicle: saline with Tween-80) is 113 % of control; the T/C (dose: 2.5 mg/kg/injection, schedule: Q01DX006 (ip), vehicle: saline with Tween-80) was 93 % of control; the T/C (dose: 2.5 mg/kg/injection, schedule: Q09DX002 (ip), vehicle: saline with Tween-80) was 102 % of control; the T/C (dose: 2.5 mg/kg/injection, schedule: Q10DX002 (ip), vehicle: saline with Tween-80) was 108 % of control. The T/C (dose: 2.5 mg/kg/injection, schedule: Q14DX003 (ip), vehicle: saline with Tween-80) was 108 % of control and 112 % of control (2×); the T/C (dose: 3.0 mg/kg/injection, schedule: Q01DX001 (ip), vehicle: saline with Tween-80) was 111 % of control; the T/C (dose: 4.4 mg/kg/injection, schedule: Q04DX003 (ip), vehicle: saline with Tween-80) was 92 % of control; the T/C (dose: 4.4 mg/kg/injection, schedule: Q07DX004 (ip), vehicle: saline with Tween-80) was 124 % of control; the T/C (dose: 4.8 mg/kg/injection, schedule: Q01DX001 (ip), vehicle: saline with Tween-80) is 116 % of control; the T/C (dose: 5.0 mg/kg/injection, schedule: Q01DX006 (ip), vehicle: saline with Tween-80) was 90 % of control. The T/C (dose: 5.0 mg/kg/injection, schedule: Q09DX002 (ip), vehicle: saline with Tween-80) is 101 % of control; the T/C (dose: 5.0 mg/kg/injection, schedule: Q10DX002 (ip), vehicle: saline with Tween-80) is 94 % of control; the T/C (dose: 6.25 mg/kg/injection, schedule: Q07DX003 (ip), vehicle: saline) is 106 % of control and 118 % of control; the T/C (dose: 6.7 mg/kg/injection, schedule: Q07DX004 (ip), vehicle: saline with Tween-80) is 118 % of control; the T/C (dose: 7.5 mg/kg/injection, schedule: Q01DX006 (ip), vehicle: saline with Tween-80) was 120 % of control; the T/C (dose: 7.5 mg/kg/injection, schedule: Q09DX002 (ip), vehicle: saline with Tween-80) was 101 % of control. Besides, the T/C (dose: 8.0 mg/kg/injection, schedule: Q09DX002 (ip), vehicle: saline with Tween-80) is 86 % of control; the T/C (dose: 10.0 mg/kg/injection, schedule: Q01DX006 (ip), vehicle: saline with Tween-80) is 112 % of control; the T/C (dose: 10.0 mg/kg/injection, schedule: Q04DX003 (ip), vehicle: saline with Tween-80) is 66 % of control; the T/C (dose: 10.0 mg/kg/injection, schedule: Q04DX004 (ip), vehicle: Klucel (hydroxypropylcellulose) (HPC)) was 86 % of control; the T/C (dose: 10.0 mg/kg/injection, schedule: Q07DX004 (ip), vehicle: saline with Tween-80) was 107 % of control; the T/C (dose: 10.0 mg/kg/injection, schedule: Q09DX002 (ip), vehicle: saline with Tween-80) was 107 % of control (2×) and 117 % of control. The T/C was 116 % of control (dose: 10.0 mg/kg/injection, schedule: Q10DX002 (ip), vehicle: saline with Tween-80); 106 % of control (dose: 11.0 mg/kg/injection, schedule: Q01DX001 (ip), vehicle: saline with Tween-80); 103 % of control (dose: 12.0 mg/kg/injection, schedule: Q01DX001 (ip), vehicle: saline); 104 % of control (dose: 13.5 mg/kg/injection, schedule: Q10DX002 (ip), vehicle: saline with Tween-80); 94 % of control (dose: 15.0 mg/kg/injection, schedule: Q04DX004 (ip), vehicle: Klucel (hydroxypropylcellulose) (HPC)); 109 % of control (dose: 15.0 mg/kg/injection, schedule: Q14DX003 (ip), vehicle: saline with Tween-80). Moreover, the T/C (dose: 16.0 mg/kg/injection, schedule: Q01DX001 (ip), vehicle: saline with Tween-80) was 111 % of control; the T/C (dose: 16.0 mg/kg/injection, schedule: Q09DX002 (ip), vehicle: saline with Tween-80) is 86 % of control; the T/C (dose: 20.0 mg/kg/injection, schedule: Q04DX004 (ip), vehicle: Klucel (hydroxypropylcellulose) (HPC)) is 86 % of control; the T/C (dose: 25.0 mg/kg/injection, schedule: Q07DX003 (ip), vehicle: saline) is 118 % of control and 121 % of control; the T/C (dose: 27.0 mg/kg/injection, schedule: Q10DX002 (ip), vehicle: saline with Tween-80) is 116 % of control; the T/C (dose: 32.0 mg/kg/injection, schedule: Q09DX002 (ip), vehicle: saline with Tween-80) is 80 % of control. The T/C was 116 % of control (dose: 36.0 mg/kg/injection, schedule: Q01DX001 (ip), vehicle: saline with Tween-80); 262 % of control (dose: 36.0 mg/kg/injection, schedule: Q01DX001 (ip), vehicle: saline); 103 % of control (dose: 45.0 mg/kg/injection, schedule: Q10DX002 (ip), vehicle: saline with Tween-80); 100 % of control and 117 % of control (dose: 48.0 mg/kg/injection, schedule: Q01DX001 (ip), vehicle: saline); 55 % of control (dose: 54.0 mg/kg/injection, schedule: Q10DX002 (ip), vehicle: saline with Tween-80).

For `O=C(O)/C=C/C(=O)Nc1cccc(Oc2ccc([N+](=O)[O-])cc2[N+](=O)[O-])c1`, the T/C is, setting by setting: (dose: 100.0 mg/kg/injection, schedule: Q01DX001 (ip), vehicle: saline) 91 % of control; (dose: 200.0 mg/kg/injection, schedule: Q01DX001 (ip), vehicle: saline) 103 % of control.

As to `O=[N+]([O-])O.[Ga]`, the T/C was 102 % of control (dose: 1.25 mg/kg/injection, schedule: Q01DX001 (ip), vehicle: saline); 102 % of control (dose: 2.5 mg/kg/injection, schedule: Q01DX001 (ip), vehicle: saline); 114 % of control (dose: 2.5 mg/kg/injection, schedule: Q01DX009 (ip), vehicle: saline); 87 % of control (dose: 2.5 mg/kg/injection, schedule: Q04DX003 (ip), vehicle: saline); 105 % of control (dose: 3.1 mg/kg/injection, schedule: Q01DX001 (ip), vehicle: saline); 102 % of control (dose: 5.0 mg/kg/injection, schedule: Q01DX001 (ip), vehicle: saline). Besides, the T/C is 91 % of control and 100 % of control (dose: 5.0 mg/kg/injection, schedule: Q01DX009 (ip), vehicle: saline); 93 % of control and 108 % of control (dose: 5.0 mg/kg/injection, schedule: Q04DX003 (ip), vehicle: saline); 94 % of control (dose: 6.2 mg/kg/injection, schedule: Q01DX001 (ip), vehicle: saline); 102 % of control (dose: 6.2 mg/kg/injection, schedule: Q04DX003 (ip), vehicle: saline); 86 % of control (dose: 7.5 mg/kg/injection, schedule: Q01DX009 (ip), vehicle: saline); 100 % of control (dose: 8.0 mg/kg/injection, schedule: Q01DX009 (ip), vehicle: saline). For the same compound, the T/C (dose: 10.0 mg/kg/injection, schedule: Q01DX001 (ip), vehicle: saline) was 92 % of control and 105 % of control; the T/C (dose: 10.0 mg/kg/injection, schedule: Q01DX009 (ip), vehicle: saline) was 97 % of control and 111 % of control; the T/C (dose: 10.0 mg/kg/injection, schedule: Q04DX003 (ip), vehicle: saline) is 87 % of control and 108 % of control; the T/C (dose: 12.5 mg/kg/injection, schedule: Q01DX009 (ip), vehicle: saline) is 105 % of control; the T/C (dose: 12.5 mg/kg/injection, schedule: Q04DX003 (ip), vehicle: saline) was 102 % of control; the T/C (dose: 20.0 mg/kg/injection, schedule: Q01DX001 (ip), vehicle: saline) is 105 % of control. Also, the T/C is 94 % of control and 102 % of control (dose: 20.0 mg/kg/injection, schedule: Q01DX009 (ip), vehicle: saline); 93 % of control and 106 % of control (dose: 20.0 mg/kg/injection, schedule: Q04DX003 (ip), vehicle: saline); 88 % of control and 105 % of control (dose: 25.0 mg/kg/injection, schedule: Q01DX009 (ip), vehicle: saline); 94 % of control (dose: 25.0 mg/kg/injection, schedule: Q04DX003 (ip), vehicle: saline); 105 % of control (dose: 40.0 mg/kg/injection, schedule: Q01DX001 (ip), vehicle: saline); 105 % of control and 110 % of control and 113 % of control (dose: 50.0 mg/kg/injection, schedule: Q01DX009 (ip), vehicle: saline). Further, the T/C runs as follows: (dose: 64.0 mg/kg/injection, schedule: Q04DX003 (ip), vehicle: water) 116 % of control; (dose: 500.0 mg/kg/injection, schedule: Q01DX001 (ip), vehicle: saline) 88 % of control and 95 % of control.
